From US11725015B2, “Macrocyclic compound and uses thereof” (President and Fellows of Harvard College, priority 2017, dated 2023)

Key:
[1] = system: human gastric cancer cell line MKN-28; assay: MKN-28 growth inhibition assay; format: cell-based; details: 3 days incubation, CellTiter-Glo
Experimental: (§1) In this assay, the growth inhibitory activities of test compounds in human gastric cancer cell lines NCI-N87 and MKN-28 were measured, respectively. NCI-N87 and MKN-28 cells were maintained in RPMI-1640 medium containing 10% FBS, penicillin and streptomycin in a 5% CO2 incubator (37° C.). To each well of a 96-well plate (Becton, Dickinson and Company, 353219), 100 μL of NCI-N87 or MKN-28 cell suspension adjusted to a concentration of 3×10^4 cells/mL with the culture medium was added, and the cells were incubated overnight in a 5% CO2 incubator (37° C.). On the next day, 100 μL of Compound (1) or Halichondrin B in three-fold dilution series suspended in the culture medium was added to each well, and the resultant was incubated for 3 days in a 5% CO2 incubator (37° C.). Then, cell viability was determined by CellTiter-Glo® Luminescent Cell Viability Assay (Promega) with EnVision 2103 Multilabel Reader (Perkin-Elmer, Wellesley, Mass.). Value of the wells containing cells without adding the test compounds was defined as 100% and the value of the wells containing no cells was defined as 0%. The concentrations of the test compound necessary for inhibiting the cell growth by 50% (i.e., an IC50 value) were calculated and are shown in Table 14.

[2] = system: human synovial sarcoma cell line HS-SY-II; assay: HS-SY-II growth inhibition assay; format: cell-based; details: 3 days incubation, CellTiter-Glo
Experimental: In this assay, the growth inhibitory activities of test compounds in the human synovial sarcoma cell line HS-SY-II were measured. […] cells were maintained in a DMEM medium containing 10% FBS, penicillin, and streptomycin in a 5% CO2 incubator (37° C.). To each well of a 96-well plate (Becton, Dickinson and Company, 353219), 100 μL of a HS-SY-II cell suspension adjusted to a concentration of 3×10^4 cells/mL with the culture medium was added, and the cells were incubated overnight in a 5% CO2 incubator (37° C.). On the next day, 100 μL of Compound (1) or Halichondrin B in three-fold dilution series suspended in the culture medium was added to each well, and the resultant was incubated for 3 days in a 5% CO2 incubator (37° C.). Then, cell viability was determined by CellTiter-Glo® Luminescent Cell Viability Assay (Promega) with EnVision 2103 Multilabel Reader (Perkin-Elmer, Wellesley, Mass.). Value of the wells containing cells without adding the test compounds was defined as 100% and the value of the wells containing no cells was defined as 0%. The concentrations of the test compounds necessary for inhibiting the cell growth by 50% (i.e., an IC50 value) were calculated, and are shown in Table 17.

[3] = system: human small bowel cancer cell line HuTu 80; assay: HuTu 80 growth inhibition assay; format: cell-based; details: 3 days incubation, CellTiter-Glo
Experimental: In this assay, the growth inhibitory activities of test compounds in the human small bowel cancer cell line HuTu 80, which was isolated from duodenal tissue were measured. HuTu 80 cells were maintained in EMEM medium containing 10% FBS, penicillin and streptomycin in a 5% CO2 incubator (37° C.). To each well of a 96-well plate (Becton, Dickinson and Company, 353219), 100 μL of a HuTu80 cell suspension adjusted to a concentration of 3×10^4 cells/mL with the culture medium was added, and the cells were incubated overnight in a 5% CO2 incubator (37° C.). On the next day, 100 μL of Compound (1) or Halichondrin B in three-fold dilution series suspended in the culture medium was added to each well, and the resultant was incubated for 3 days in a 5% CO2 incubator (37° C.). Then, cell viability was determined by CellTiter-Glo® Luminescent Cell Viability Assay (Promega) with EnVision 2103 Multilabel Reader (Perkin-Elmer, Wellesley, Mass.). Value of the wells containing cells without adding the test compounds was defined as 100% and the value of the wells containing no cells was defined as 0%. The concentrations of the test compounds necessary for inhibiting the cell growth by 50% (i.e., an IC50 value) were calculated and are shown in Table 15.

[4] = system: α-SMA positive-CAFs in the FaDu subcutaneous model; assay: Effect on α-SMA positive-CAFs in the FaDu subcutaneous model (Test Example 10); format: in vivo, mice; details: two days after administration
Experimental: A human squamous cell carcinoma of the head and neck (SCCHN) cell line FaDu, which had been cultured in an RPMI-1640 medium containing 10% FBS, and penicillin and streptomycin, was adjusted to a concentration of 5×10^7 cells/mL with PBS to prepare a cell suspension. The cell suspension was inoculated in a volume of 100 μL into a subcutaneous part of a right flank of nude mice, 5 to 6 weeks of ages (CAnN.Cg-Foxnlnu/CrlCrlj, female, Charles River Laboratories Japan, Inc.). Ten days after cell inoculation, a test compound in saline with 100 μM of hydroxypropyl-β-cyclodextrin was intravenously administered at ½ MTD and MTD. The experiment was conducted on groups each consisting of 3 mice. Two days after administration, tumor samples were collected and fixed with IHC Zinc Fixative (BD Pharmingen) at 4° C. for 24 hr. Paraffin-embedded tissues were sectioned (3 μm), mounted on positively charged slides, and air-dried for 6 hr. Immunohistochemical staining of α-SMA was conducted using Ventana autostainer model Discover XT (Roche Diagnostics). Sections were deparaffinized, conditioned and the antigens were retrieved with proprietary buffers, EZPrep and CC1 (Ventana Medical Systems). Mouse anti-α-SMA monoclonal antibody conjugated with alkaline phosphatase (clone 1A4, Sigma) was applied at 5 μg/mL. Sections were incubated with the antibody for 6 hr. The detection was performed with RedMap kit (Ventana Medical Systems, Inc). Sections were dehydrated in graded ethanols, defatted in xylene replacement and covered with DPX (Merck KGaA). The serial tumor slices were deparaffinized and stained with Mayer's hematoxylin (Muto Pure Chemicals) for 1 min. Sections were dehydrated in graded ethanols, defatted in xylene replacement and covered with DPX (Merck KGaA).
Immunostained slides were scanned using Vectra 2 Automated Slide Imaging System (Perkin Elmer Inc.). The area of the α-SMA-positive region in the whole tumor was quantified by counting the α-SMA-positive objects using inForm 2 software (PerkinElmer Inc.). Area of the tumor region was measured by assessing the hematoxylin-staining area using in Form 2 software (PerkinElmer Inc.). The area of the α-SMA positive region was normalized by the area of the tumor region. A suppression rate of the α-SMA positive area of the test compound-dosing group was calculated with the below formula, and shown in Table 10.

[5] = system: human gastric cancer cell line NCI-N87; assay: NCI-N87 growth inhibition assay; format: cell-based; details: 3 days incubation, CellTiter-Glo
Experimental: as §1

SMILES | IC50 [1] [nM] | IC50 [2] [nM] | IC50 [3] [nM] | Suppression rate of α-SMA positive area (%) ([4]; 0.10 mg/kg intravenously) | Suppression rate of α-SMA positive area (%) ([4]; 0.20 mg/kg intravenously) | IC50 [5] [nM] | Suppression rate of α-SMA positive area (%) ([4]; 0.025 mg/kg intravenously) | Suppression rate of α-SMA positive area (%) ([4]; 0.05 mg/kg intravenously)
C=C1C[C@@H]2CC[C@@]34C[C@H]5O[C@H]6[C@@H](O3)[C@H]3O[C@H](CC[C@@H]3O[C@H]6C5O4)CC(=O)O[C@@H]3[C@@H](C)[C@@H]4O[C@@H]5C[C@]6(C[C@@H]7O[C@]8(C[C@H](C)[C@@H]9O[C@H](CN)[C@H](O)C[C@@H]9O8)C[C@H](C)[C@@H]7O6)O[C@@H]5C[C@@H]4O[C@H]3C[C@H]3O[C@@H](CC[C@@H]1O2)C[C@@H](C)C3=C [Compound (1)] | 0.015 | 0.002 | 0.019 | 21 | 28 | 0.002 |  | 
C=C1C[C@@H]2CC[C@@]34C[C@H]5O[C@H]6[C@@H](O3)[C@H]3O[C@H](CC[C@@H]3O[C@H]6[C@H]5O4)CC(=O)O[C@@H]3[C@@H](C)[C@@H]4O[C@@H]5C[C@]6(C[C@@H]7O[C@]8(C[C@H](C)[C@@H]9O[C@H]([C@@H](O)C[C@@H](O)CO)C[C@@H]9O8)C[C@H](C)[C@@H]7O6)O[C@@H]5C[C@@H]4O[C@H]3C[C@H]3O[C@@H](CC[C@@H]1O2)C[C@@H](C)C3=C [Halichondrin B, reference compound] | 0.017 | 0.01 | 0.031 |  |  | 0.007 | 7 | 3
